This note sets out measurements from ChEMBL document CHEMBL1131612, “6-Amino-2-(4-fluorophenyl)-4-methoxy-3- (4-pyridyl)-1H-pyrrolo[2, 3-b]pyridine (RWJ 68354): a potent and selective p38 kinase inhibitor” (J Med Chem, 1998).

Test [1] can be described thus: Percent inhibition of LPS-stimulated TNF-alpha release in fasted BALB/cJ mice at 25 mg/kg. The settings on record: Mus musculus. It counts as functional.
Test [2] deals with PBMC. In words: cells. The test is classed as functional, cell-based. The conditions noted are these: Homo sapiens.
Test [3] addresses Mitogen-activated protein kinase 1 (Homo sapiens) (UniProt P28482). Description: Inhibition of Mitogen-activated protein kinase 1 (ERK-2 enzyme) at 10 uM.
For test [4], the target named is Proto-oncogene tyrosine-protein kinase Src (Homo sapiens) (UniProt P12931). Description: Inhibition of c-Src tyrosine kinase at 5 uM.
Chain of Proto-oncogene tyrosine-protein kinase Src (Homo sapiens) (P12931 2-536 limits assumed): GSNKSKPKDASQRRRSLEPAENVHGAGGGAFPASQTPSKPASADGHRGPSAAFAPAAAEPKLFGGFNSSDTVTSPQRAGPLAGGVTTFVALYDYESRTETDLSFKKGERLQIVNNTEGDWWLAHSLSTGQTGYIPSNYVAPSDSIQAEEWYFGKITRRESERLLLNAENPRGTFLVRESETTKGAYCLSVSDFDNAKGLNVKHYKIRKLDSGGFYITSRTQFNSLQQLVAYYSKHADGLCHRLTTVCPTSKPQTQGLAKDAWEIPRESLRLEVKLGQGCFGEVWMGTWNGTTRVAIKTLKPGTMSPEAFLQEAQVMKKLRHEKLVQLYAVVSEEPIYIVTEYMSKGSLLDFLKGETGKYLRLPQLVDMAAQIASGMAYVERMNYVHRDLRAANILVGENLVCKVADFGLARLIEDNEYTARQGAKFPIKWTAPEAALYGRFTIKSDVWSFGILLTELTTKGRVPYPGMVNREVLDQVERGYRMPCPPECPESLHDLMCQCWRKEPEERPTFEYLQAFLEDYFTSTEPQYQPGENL
For test [5], the target named is cAMP-dependent protein kinase (PKA) (Homo sapiens) (UniProt P22694+P17612+P22612). Description: Inhibition of Protein kinase A at 5 uM. It counts as protein assay.
The test system of test [6] is PBMC. Description: cells. The settings on record: Homo sapiens.
Description: Inhibition of LPS-stimulated TH+NF-alphs production by human peripheral blood mononuclear cells (PBMCs)
Test [7] can be described thus: Percent inhibition of LPS-stimulated TNF-alpha release in fasted BALB/cJ mice at 10 mg/kg. The test is classed as functional. The settings on record: Mus musculus.
Test [8] addresses T1, Prostaglandin G/H synthase 1 (Homo sapiens, UniProt P23219). In words: Inhibition of Prostaglandin G/H synthase 1 at 5 uM (Inactive).
Test [9] addresses T1, Prostaglandin G/H synthase 1. Description: Inhibition of Prostaglandin G/H synthase 1 at 5 uM.
The nature of test [10]: animal or person. The conditions noted are these: Mus musculus, read-out: Inhibition.
The nature of test [11]: animal or person. The settings on record: Mus musculus, read-out: Inhibition. This is another data set of the same source.

SMILES strings stand for the structures. Where only a bound is given, the exact number is not on record here.

Chain of Mitogen-activated protein kinase 1 (Homo sapiens) (P28482 whole entry): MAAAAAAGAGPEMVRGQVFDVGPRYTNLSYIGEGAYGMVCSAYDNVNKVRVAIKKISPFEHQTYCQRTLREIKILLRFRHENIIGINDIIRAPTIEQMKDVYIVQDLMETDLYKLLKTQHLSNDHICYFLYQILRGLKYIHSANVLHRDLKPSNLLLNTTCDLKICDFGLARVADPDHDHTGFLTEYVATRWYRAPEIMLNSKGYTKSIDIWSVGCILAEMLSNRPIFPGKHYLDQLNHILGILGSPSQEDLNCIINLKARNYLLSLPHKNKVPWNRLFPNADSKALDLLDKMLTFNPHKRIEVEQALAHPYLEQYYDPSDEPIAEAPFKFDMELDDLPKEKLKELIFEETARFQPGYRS
T1 sequence (P23219 whole entry): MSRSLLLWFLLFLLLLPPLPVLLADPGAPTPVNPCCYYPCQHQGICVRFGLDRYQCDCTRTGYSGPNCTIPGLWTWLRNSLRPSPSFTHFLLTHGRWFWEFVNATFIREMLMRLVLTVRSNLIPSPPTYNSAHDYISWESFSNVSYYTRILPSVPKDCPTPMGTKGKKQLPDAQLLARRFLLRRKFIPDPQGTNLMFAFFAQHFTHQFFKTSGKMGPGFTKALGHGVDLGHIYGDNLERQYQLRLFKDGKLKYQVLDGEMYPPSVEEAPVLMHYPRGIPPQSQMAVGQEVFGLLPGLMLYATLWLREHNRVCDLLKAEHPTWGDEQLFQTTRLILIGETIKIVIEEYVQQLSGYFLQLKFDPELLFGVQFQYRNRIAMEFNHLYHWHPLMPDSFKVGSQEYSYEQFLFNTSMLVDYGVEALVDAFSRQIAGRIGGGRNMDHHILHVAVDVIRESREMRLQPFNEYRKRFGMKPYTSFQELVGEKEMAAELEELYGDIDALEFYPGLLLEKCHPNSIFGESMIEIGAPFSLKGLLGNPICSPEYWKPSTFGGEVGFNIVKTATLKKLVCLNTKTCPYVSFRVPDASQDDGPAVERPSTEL

Take `Nc1ccc2c(-c3ccncc3)c(-c3ccc(F)cc3)[nH]c2n1`: in test [1], the inhibition in vivo at 25 mg/kg worked out at 98%. Also, the results for the IC50 (in the test with PBMC [2]; in the test with PBMC [6]; in [8]) were 450 nM, 37 nM and “Not Active”, respectively. The inhibition in test [3] is 0%; in test [4], 63%; in test [5], 16%. Also, the inhibition in vivo at 10 mg/kg in test [7] amounted to 73%.

Take `COc1cccc(COc2cc(N)[nH]c3nc(-c4ccc(F)cc4)c(-c4ccncc4)c2-3)c1`: the inhibition in [4] is 58%; in test [5], 0%. The IC50 in the test on PBMC [6] is 1.5 nM.

In test [1], `CCCCOc1cc(N)[nH]c2nc(-c3ccc(F)cc3)c(-c3ccncc3)c1-2` had an inhibition in vivo at 25 mg/kg of 71%. Further, the results for the inhibition in test [4] and in test [5] were 18% and 0%, respectively. In addition, the IC50 in the test on PBMC [6] was 4 nM; in test [8], “Not Active”. This compound returned an inhibition in vivo at 10 mg/kg in test [7] of 27%.

Consider `Nc1cc(OCCCc2ccccc2)c2c(-c3ccncc3)c(-c3ccc(F)cc3)[nH]c2n1`, for which the inhibition in test [4] was 3%; in test [5], 0%. Further, the IC50 with PBMC [6] is 9 nM.

`Nc1cc(OCc2ccccc2)c2c(-c3ccncc3)c(-c3ccc(F)cc3)[nH]c2n1` showed an inhibition in vivo at 25 mg/kg in test [1] of 86%. The inhibition is 19% in test [4] and 0% in test [5]. The IC50 in the test with PBMC [6] is 0.91 nM; in test [8] it was “Not Active”. This compound also returned an inhibition in vivo at 10 mg/kg in [7] of 11%.

Take `C[S+]([O-])c1ccc(-c2nc(-c3ccncc3)c(-c3ccc(F)cc3)[nH]2)cc1` (stereo not drawn) [SB-203580]: in [9], the IC50 was over 5000 nM.

Take `COc1cc(N)[nH]c2nc(-c3ccc(F)cc3)c(-c3ccncc3)c1-2`: in the test “animal or person [10]”, the inhibition in vivo at 25 mg/kg came to 99%. Also, the inhibition in test [3] is 23%; in test [4] it was 43%; in [5] it was 0%. For the same compound, in “animal or person [11]”, the inhibition in vivo at 10 mg/kg was 85%. In addition, the IC50 result in test [8] is “Not Active”.

In test [1], `C[S+]([O-])c1ccc(-c2nc(-c3ccc(F)cc3)c(-c3ccncc3)[nH]2)cc1` (stereo not drawn) [SB-203580] showed an inhibition in vivo at 25 mg/kg of 83%. The figures for the inhibition in test [3], in test [4] and in [5] were 22%, 54% and 0%, respectively. The compound further came in with an inhibition in vivo at 10 mg/kg in [7] of 33%.

For orientation: IC50 means the concentration needed to halve the response being measured. Low readings indicate higher potency, high ones lower potency. For orientation: inhibition means the share of the control response that was lost under treatment. Lower therefore signals little suppression.
